Source: PubChem BioAssay AID2060627 (Molecular Pharmacology Branch, DTP, NCI, 2025)

Tested on: 156681-154-R-J1-PDC complex spheroid viability
Assay: Anticancer human tumor 156681-154-R-J1-PDC patient-derived melanoma cell line growth inhibition [CLK]
Settings: for IC50: curve of first compound; for viability, T/C: stronger effect = lower value
Method in brief: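 Patient-derived tumor cells grown as complex spheroids with HUVEC endothelial cells and mesenchymal stem cells, treated with drug combinations. Concentrations descend in half-log steps from near clinical Cmax, or from 10 microM if Cmax unknown.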
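Also: spheroids exposed to the agents for seven days.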
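For viability, T/C in this document: 100% = DMSO vehicle control viability.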

`COc1c(OCCCN2CCOCC2)ccc2c3n(c(=NC(=O)c4cnc(N)nc4)nc12)CCN3` + CNC(=O)c1ccc(Nc2nc(OC3CCCC3)c3c(-c4ccc5nc(C)oc5c4)c[nH]c3n2)c(OC)c1 showed an IC50 (second compound 0.0316 µM) of 17.4 nM, an IC50 (second compound 0.1 µM) of 10.2 nM and an IC50 (second compound 0.316 µM) of 7 nM. For the same compound, the IC50 (second compound 1 µM) was 3.39 nM, the IC50 (second compound 3.16 µM) was less than 3.16 nM and the IC50 (second compound 10 µM) was less than 3.16 nM. It also gave a viability, T/C (second compound 0.0316 µM, first compound 0.00316 µM) of 74.4%, a viability, T/C (second compound 0.0316 µM, first compound 0.01 µM) of 64.8% and a viability, T/C (second compound 0.0316 µM, first compound 0.0316 µM) of 33.8%. For the same compound, the viability, T/C (second compound 0.0316 µM, first compound 0.1 µM) was 17.3%, the viability, T/C (second compound 0.0316 µM, first compound 0.316 µM) was 2.95% and the viability, T/C (second compound 0.0316 µM, first compound 1 µM) was 0.22%. It also gave a viability, T/C (second compound 0.1 µM, first compound 0.00316 µM) of 50.5%, a viability, T/C (second compound 0.1 µM, first compound 0.01 µM) of 56.1% and a viability, T/C (second compound 0.1 µM, first compound 0.0316 µM) of 33.5%. For the same compound, the viability, T/C (second compound 0.1 µM, first compound 0.1 µM) was 18.5%, the viability, T/C (second compound 0.1 µM, first compound 0.316 µM) was 2.54% and the viability, T/C (second compound 0.1 µM, first compound 1 µM) was 0.32%. It also gave a viability, T/C (second compound 0.316 µM, first compound 0.00316 µM) of 61.2%, a viability, T/C (second compound 0.316 µM, first compound 0.01 µM) of 44.2% and a viability, T/C (second compound 0.316 µM, first compound 0.0316 µM) of 27.9%. It also gave a viability, T/C (second compound 0.316 µM, first compound 0.1 µM) of 13.3%, a viability, T/C (second compound 0.316 µM, first compound 0.316 µM) of 4.38% and a viability, T/C (second compound 0.316 µM, first compound 1 µM) of 3.9%. The viability, T/C (second compound 1 µM, first compound 0.00316 µM) was 50.8%, the viability, T/C (second compound 1 µM, first compound 0.01 µM) was 37.3% and the viability, T/C (second compound 1 µM, first compound 0.0316 µM) was 18.8%. It also gave a viability, T/C (second compound 1 µM, first compound 0.1 µM) of 6.93%, a viability, T/C (second compound 1 µM, first compound 0.316 µM) of 1.63% and a viability, T/C (second compound 1 µM, first compound 1 µM) of 0.35%. The viability, T/C (second compound 3.16 µM, first compound 0.00316 µM) was 47.6%, the viability, T/C (second compound 3.16 µM, first compound 0.01 µM) was 35.5% and the viability, T/C (second compound 3.16 µM, first compound 0.0316 µM) was 19.9%. For the same compound, the viability, T/C (second compound 3.16 µM, first compound 0.1 µM) was 6.45%, the viability, T/C (second compound 3.16 µM, first compound 0.316 µM) was 1.23% and the viability, T/C (second compound 3.16 µM, first compound 1 µM) was 0.32%. For the same compound, the viability, T/C (second compound 10 µM, first compound 0.00316 µM) was 49.1%, the viability, T/C (second compound 10 µM, first compound 0.01 µM) was 30.9% and the viability, T/C (second compound 10 µM, first compound 0.0316 µM) was 10.6%. It also gave a viability, T/C (second compound 10 µM, first compound 0.1 µM) of 5.7%, a viability, T/C (second compound 10 µM, first compound 0.316 µM) of 1.04% and a viability, T/C (second compound 10 µM, first compound 1 µM) of 0.31%.
